The record followed here is patent publication US20260053794A1, “SOMATOSTATIN RECEPTOR 2 AGONISTS AND USES THEREOF” (Exelixis, Inc., priority 2022, published 2026).

What is called EC50 is the concentration at which the effect is half-maximal.

Each structure is given as a SMILES string.

In this test the target is T1, Somatostatin Receptor 2 (SSTR2) (Homo sapiens, UniProt P30874).
T1 construct: expressed in transfected cells
T1 sequence (P30874 whole entry, species assumed): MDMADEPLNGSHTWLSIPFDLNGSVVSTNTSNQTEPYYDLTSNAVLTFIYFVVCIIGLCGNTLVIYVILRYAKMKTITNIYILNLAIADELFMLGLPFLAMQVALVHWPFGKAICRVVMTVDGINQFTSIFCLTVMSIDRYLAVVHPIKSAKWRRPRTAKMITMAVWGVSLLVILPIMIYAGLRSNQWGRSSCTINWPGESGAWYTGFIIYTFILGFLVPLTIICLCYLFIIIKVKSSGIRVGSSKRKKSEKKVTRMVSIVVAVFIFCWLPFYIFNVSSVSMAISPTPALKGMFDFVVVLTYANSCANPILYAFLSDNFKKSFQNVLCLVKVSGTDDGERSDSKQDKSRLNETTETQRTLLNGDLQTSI
Nature of the test: Biochemical Assay for Activation of Somatostatin Receptor 2 (SSTR2), Cisbio HTRF cAMP assay. In kind it is cell-based. The settings on record: average pEC50; HTRF cAMP assay in stably-transfected cell line expressing SSTR2; cells incubated with compounds for 1-2h. The method, then: Biochemical Assay for Activation of Somatostatin Receptor 2 (SSTR2)
Agonistic activation of SSTRs leads to an […] production of intracellular cAMP levels. Cisbio's homogeneous time-resolved fluorescence (HTRF) cAMP assay was used to measure cAMP concentration in an high-throughput format. Increase in intracellular cAMP concentrations was measuring using a stably-transfected cell line expressing SSTR2. Test compounds were dissolved in DMSO. Cells were incubated with compounds for 1-2h, and subsequently competitive binding of cAMP produced due to the activation of SSTR2 by the test compounds was measured using the Cisbio cAMP Gs dynamic assay system (Perkin Elmer, Bedford, MA).
The average pEC50 was determined for the test compounds.
A general note: Time-resolved FRET reads energy transfer from a long-lived donor to a nearby acceptor.
Turning to `COc1cc(F)cc(-c2cnc3[nH]c(-c4cc(F)cc(C(=O)O)c4)nc3c2N2CC[C@@H](N)[C@H](OC)C2)c1` [Compound 52], the EC50 was more than 10000 nM.
The result for `Cc1cc(C)cc(-c2cnc3c(c2N2CCC(N)CC2)C(=O)N(c2ccc(F)c(F)c2)CC3)c1` [Compound 112] reads 25.1 nM; that for `NC1CCN(c2c(-c3cc(F)cc(F)c3)cnc3ccc(C4=CC=CN5CCNC(=O)C45O)cc23)CC1` (stereo not shown) [Compound 158], 501 nM.
The result for `Cc1cc(F)cc(-c2cncc(N3Cc4ccccc4C3)c2N2CCC(N)CC2)c1` [Compound 119] reads 0.0501 nM.
The same measure for `Cc1cc(F)cc(-c2cnc3ccc4cc3c2N2CCC(CC2)NCCNC(=O)Oc2ccccc2-4)c1` [Compound 87, 23-(3-fluoro-5-methylphenyl)-4-oxa-6,9-diaza-2(4,6)-quinolina-1(1,4)-piperidina-3(1,2)-benzenacyclononaphan-5-one]: 0.251 nM.
With `COCOc1c(C#N)cccc1-c1ccc2ncc(-c3cc(F)cc(F)c3)c(N3CC4(CNC4)C3)c2c1` [Compound 138], the EC50 is 6310 nM.
With `Cc1cc(F)cc(-c2cnc3ccc4cc3c2N2CCC(CC2)NCCCNC(=O)c2ccccc2-4)c1` [Compound 86], the EC50 is 6310 nM.
The result for `Nc1nc(Cl)ccc1C(=O)Nc1cncc(-c2ccccc2)c1N1CCC(N)CC1` [Compound 165] reads 12.6 nM; that for `NC(=O)c1cc(F)cc(-c2nc3c(N4CCC(N)CC4)c(-c4cc(F)cc(F)c4)cnc3[nH]2)c1` [Compound 65], 3160 nM; that for `Cc1cc(F)cc(-c2cnc3c(nc(-c4cc(F)cc(C(N)=O)c4)n3C)c2N2CCC(N)CC2)c1` [Compound 35, 3-(7-(4-aminopiperidin-1-yl)-6-(3-fluoro-5-methylphenyl)-3-methyl-3H-imidazo[4,5-b]pyridin-2-yl)-5-fluorobenzamide], 158 nM.
The result for `Cc1cc(F)cc(-c2cnc3ccc4cc3c2N2CCC(CC2)NCCCCOc2c(C(N)=O)cccc2-4)c1` [Compound 74] reads 0.251 nM; that for `COCOc1c(C#N)cccc1-c1ccc2ncc(-c3cc(F)cc(F)c3)c(N3CC4(CN(C(C)=O)C4)C3)c2c1` [Compound 139], more than 5010 nM; that for `CO[C@@H]1CN(c2c(-c3cc(F)cc(F)c3)cnc3c2nc(-c2ccc4[nH]c(=O)[nH]c4c2)n3C)CC[C@H]1N` [Compound 25], more than 10000 nM.
The same measure for `CO[C@@H]1CN(c2c(-c3cc(F)cc(F)c3)cnc3[nH]c(-c4cccc(C#N)c4O)nc23)CC[C@H]1N` [Compound 48]: 501 nM; for `CNCCCn1c(=O)n(-c2ccc(F)c(F)c2)c(=O)c2cncc(-c3cc(F)cc(F)c3)c21` [Compound 118]: more than 10000 nM; for `NC1CCN(c2c(-c3cc(F)cc(F)c3)cnc3sc(-c4cc(F)cc(F)c4)cc23)CC1` [Compound 134]: 631 nM.
For `N[C@H]1CC[C@@H](Oc2c(-c3cc(F)cc(F)c3)cnc3ccc(-c4ccc5[nH]c(=O)[nH]c5c4)cc23)C1` [Compound 11], the EC50 is 398 nM.
The result for `N#Cc1cccc(-c2ccc3ncc(-c4cc(F)cc(F)c4)c(C4=CCC(N)CC4)c3c2)c1O` (stereo not shown) [Compound 125] reads 5.01 nM.
The result for `C=CCOc1c(C#N)cccc1-c1ccc2ncc(-c3cc(F)cc(F)c3)c(N3CCC(N)CC3)c2c1` [Compound 142] reads 0.501 nM; that for `N#Cc1cccc(-c2ccc3ncc(-c4cc(F)cc(F)c4)c(-n4ccc(CN)c4)c3c2)c1O` [Compound 144], 1260 nM; that for `N#Cc1cccc(-c2ccc3ncc(-c4cc(F)cc(F)c4)c(O[C@H]4CC[C@@H](N)C4)c3c2)c1O` [Compound 16], 200 nM.
The same measure for `N[C@H]1CC[C@H](Oc2c(-c3cc(F)cc(F)c3)cnc3ccc(-c4cc(F)cc(F)c4)cc23)C1` [Compound 15]: 12.6 nM; for `Cn1c(-c2cccc(C#N)c2O)nc2c(N3CCC(NC(=O)OC(C)(C)C)CC3)c(-c3cc(F)cc(F)c3)cnc21` [Compound 42]: more than 10000 nM.
Regarding `Cc1cc(F)cc(-c2cnc3c(nc(-c4ccc5[nH]c(=O)[nH]c5c4)n3C)c2N2CCC(N)CC2)c1` [Compound 36], the EC50 is more than 10000 nM.
For the molecule `Cc1cc(F)cc(-c2cnc3ccc4cc3c2N2CCC(CC2)NCC[C@H](N)COc2c(C#N)cccc2-4)c1` (single isomer, unassigned) [Compound 99], the EC50 was 7.94 nM.
The same measure for `CC(C)(C)OC(=O)NC1CCN(c2c(-c3cc(F)cc(F)c3)cnc3c(C(=O)O)cc(-c4cc(F)cc(F)c4)cc23)CC1` [Compound 148]: more than 794 nM.
In the case of `Cc1cc(F)cc(-c2cnc3ccc(-c4ccccc4C4NCCCN4)cc3c2N2CCC(=O)CC2)c1` [Compound 162], the EC50 was 1000 nM.
As for `COc1cc(F)cc(-c2cnc3[nH]c(-c4cccc(Br)c4O)nc3c2N2CCC(N)CC2)c1` [Compound 57], the concentration giving a half-maximal response (EC50) was 10 nM.
The same measure for `Cc1cc(F)cc(-c2cnc3ccc4cc3c2N2CCC(CC2)NCC[C@@H](N)COc2c(C#N)cccc2-4)c1` (single isomer, unassigned) [Compound 98]: 316 nM; for `NCc1cc(-c2cc(F)cc(F)c2)cc2c(N3CCC(N)CC3)c(-c3cc(F)cc(F)c3)cnc12` [Compound 159]: 0.398 nM; for `COc1cc(F)cc(-c2cnc3c(nc(-c4cccc(C#N)c4O)n3C)c2N2CC[C@@H](N)[C@H](OC)C2)c1` [Compound 29]: more than 10000 nM.
The same measure for `Cn1c(-c2cccc(Br)c2O)nc2c(N3CCC(N)CC3)c(-c3cc(F)cc(F)c3)cnc21` [Compound 41]: 158 nM; for `Cc1cc(F)cc(-c2cnc3ccc4cc3c2N2CCC(CC2)NCC[C@H](O)COc2c(C#N)cccc2-4)c1` (single isomer, unassigned) [Compound 103]: 3980 nM; for `Cc1cc(F)cc(-c2cnc3ccc4cc3c2N2CCC(CC2)NC[C@@H](O)CCOc2c(C#N)cccc2-4)c1` (single isomer, unassigned) [Compound 100]: 2510 nM.
The same measure for `Cc1cc(C)cc(-c2cnc3c(c2N2CC[C@H](N)C2)C(=O)N(c2cc(C)cc(C)c2)CC3)c1` [Compound 116]: 1260 nM; for `N#Cc1cccc(-c2ccc3ncc(-c4cc(F)cc(F)c4)c(N4CC5(CNC5)C4)c3c2)c1O` [Compound 137]: more than 10000 nM.
As for `Cc1cc(F)cc(-c2cnc(Cl)c(-c3nc4cc(F)c(F)cc4[nH]3)c2N2CCC(N)CC2)c1` [Compound 104, 1-(2-chloro-3-(5,6-difluoro-1H-benzo[d]imidazol-2-yl)-5-(3-fluoro-5-methylphenyl)pyridin-4-yl)piperidin-4-amine], the EC50 was 0.0794 nM.
The result for `Cc1cc(F)cc(-c2cnc3ccc(-c4cccc(C#N)c4O)cc3c2N2CCC(=O)CC2)c1` [Compound 163] reads more than 10000 nM; that for `Cc1cc(F)cc(-c2cnc3ccc(-c4cccc(C#N)c4O)cc3c2N2CCC(O)CC2)c1` [Compound 164], more than 10000 nM.
The same measure for `CC(N)CCN1CCc2c(-c3cc(F)cc(F)c3)ccc3ncc(-c4cc(F)cc(F)c4)c1c23` (stereo not shown) [Compound 155]: 631 nM; for `N#Cc1cccc(-c2ccc3ncc(-c4cc(F)cc(F)c4)c(-c4ccc(N)cn4)c3c2)c1O` [Compound 123]: more than 10000 nM; for `NC1CCN(c2c(-c3nc4cc(F)c(F)cc4[nH]3)cnc3c2-c2cc(F)ccc2CO3)CC1` [Compound 121, 1-(2-(5,6-difluoro-1H-benzo[d]imidazol-2-yl)-9-fluoro-6H-isochromeno[3,4-b]pyridin-1-yl)piperidin-4-amine]: 631 nM.
The same measure for `N#Cc1cccc(-c2cc3ncc(-c4cc(F)cc(F)c4)c(N4CCC(N)CC4)c3o2)c1O` [Compound 127, 3-(7-(4-aminopiperidin-1-yl)-6-(3,5-difluorophenyl)furo[3,2-b]pyridine-2-yl)-2-hydroxybenzonitrile]: 251 nM; for `Cc1cc(F)cc(-c2cnc3ccc(-c4cc(F)cc(C(N)=O)c4)cc3c2OC2CCCC(CN)C2)c1` (stereo not shown) [Compound 21]: 20 nM; for `Cn1c(-c2cccc(C#N)c2O)nc2c(N3CCC(N)CC3)c(-c3cc(F)cc(F)c3)cnc21` [Compound 43]: 6310 nM.
Take `N#Cc1cccc(-c2cc3ncc(-c4cc(F)cc(F)c4)c(N4CCC(N)CC4)c3s2)c1O` [Compound 132]: the EC50 is more than 10000 nM.
The result for `Cc1cc(F)cc(-c2cnc3ccc4cc3c2N2CCC(CC2)NCC(N=[N+]=[N-])CCOc2c(C#N)cccc2-4)c1` (stereo not shown) [Compound 94, 7-azido-23-(3-fluoro-5-methylphenyl)-4-oxa-9-aza-2(4.6)-quinolina-1(1.4)-piperidina-3(1,2)-benzenacyclononaphane-33-carbonitrile] reads 158 nM.
`CC(N)CCN1Cc2ccc(F)cc2-c2cncc(C(=O)Nc3ccc(F)c(F)c3)c21` (stereo not shown) [Compound 109, 5-(3-aminobutyl)-N-(3,4-difluorophenyl)-9-fluoro-6H-benzo [c][1,6]naphthyridine-4-carboxamide]: the concentration giving a half-maximal response (EC50) is 200 nM.
The same measure for `O=C1NCCCCNC2CCN(CC2)c2c(-c3cc(F)cc(F)c3)cnc3ccc(cc23)-c2cccnc21` [Compound 84]: more than 10000 nM; for `NC1CCN(c2c(-c3cc(F)cc(F)c3)cnc3cc(-c4cc(F)cc(F)c4)sc23)CC1` [Compound 133]: 1580 nM; for `NC1CCN(c2c(-c3cc(F)cc(F)c3)cnc3ccc(C4=CC=CC5(O)C(=O)NCCN45)cc23)CC1` (stereo not shown) [Compound 151]: 1.58 nM.
`N#Cc1cccc2c1OCCO[C@H]1CN(CC[C@@H]1N)c1c(-c3cc(F)cc(F)c3)cnc3ccc-2cc13` [Compound 77]: the EC50 was 6.31 nM.
